From publication PMC11206297, “Targeting NAD Metabolism: Rational Design, Synthesis and In Vitro Evaluation of NAMPT/PARP1 Dual-Target Inhibitors as Anti-Breast Cancer Agents” (Molecules, 2024)

Legend:
NAMPT = NAMPT (Homo sapiens, UniProt P43490); test: NAMPT enzymatic inhibition assay (fluorescence, coupled NMNAT/alcohol dehydrogenase); assay type: biochemical; settings: mean ± SD of at least two independent experiments in duplicate
PARP1 = PARP1 (Homo sapiens, UniProt P09874); test: PARP1 enzymatic inhibition assay (ELISA, chemiluminescence); assay type: biochemical
MDA-MB-231 = test: MTT cell viability assay, MDA-MB-231; assay type: cell-based; settings: Homo sapiens, 72 h, mean ± SEM, read-out: Cytotoxicity IC50 MDA-MB-231
Protocol: (§1) MDA-MB-468, MDA-MB-231, MCF-7, and MCF-10A cell lines were obtained from the National Collection of Authenticated Cell Culture, China. The cells were cultured in DMEM medium supplemented with 10% FBS and 1% penicillin/streptomycin, and maintained at 37 °C in a humidified atmosphere with 5% CO2.
(§2) Cell viability was assessed using the MTT assay. Cells were seeded at a density of 3 × 10^3 cells per well in a 96-well plate and treated with various concentrations (0.05, 0.2, 0.8, 3.2, 6.4, 12.8 µM) of the compounds for 72 h. After incubation, 100 µL of MTT solution (0.5 mg/mL) was added to each well and further incubated for 4 h. The resulting formazan crystals were dissolved in 150 µL of DMSO, and the absorbance was measured at 570 nm using a microplate reader.

MDA-MB-468 = test: MTT cell viability assay, MDA-MB-468; assay type: cell-based; settings: Homo sapiens, 72 h, mean ± SEM, read-out: Cytotoxicity IC50 MDA-MB-468
Protocol: as §1, §2

MCF-7 = test: MTT cell viability assay, MCF-7; assay type: cell-based; settings: Homo sapiens, MCF7, 72 h, mean ± SEM, read-out: Cytotoxicity IC50 MCF-7
Protocol: as §1, §2

[1] = MTT cell viability assay, MCF-10A normal breast epithelial cells; assay type: cell-based, human; settings: human, MCF-10A normal breast epithelial cells; MCF-10A; mean ± SEM; read-out: Cytotoxicity IC50
Protocol: as §1, §2

MCF-10A = test: as above; assay type: cell-based, human
Protocol: as §1, §2

MDA-MB-468 cells [2] = test: Annexin V-FITC/PI apoptosis assay (flow cytometry); assay type: cell-based; settings: 72 h
Protocol: To investigate whether DDY02 induced apoptosis in MDA-MB-468 cells, we performed the annexin V/PI double staining assay, and the staining results were analyzed by flow cytometry, dividing the results into four quadrants (Q1~Q4). In this representation, Q1 represents necrosis, Q2 represents late apoptosis, Q3 represents early apoptosis, and Q4 represents living cells.
The Annexin V-FITC/PI cell apoptosis detection kit (KeyGen Biotech, Nanjing, China) was employed for the analysis of cell apoptosis. MDA-MB-468 cells (5 × 10^5 cells/mL) were seeded in six-well plates and treated with compounds at corresponding concentrations for 72 h. Subsequently, MDA-MB-468 cells were harvested and incubated with 5 μL of Annexin V-FITC and 5 μL of propidium iodide (PI) in the dark for 15 min at room temperature. Apoptosis data were assessed using flow cytometry (Accuri C6 Plus, BD Bioscience, San Jose, CA, USA).

MDA-MB-468 cells [3] = test: Colony formation (clonogenic) assay; assay type: cell-based; settings: MDA-MB-468, 7 days
Protocol: MDA-MB-468 cells were plated in 6-well plates at a density of 500 cells/well and allowed to grow for 7 days to promote colony formation. Following the incubation period, cells were washed with PBS, fixed in methanol for 15 min, and stained with 1% crystal violet for 1 h. Subsequently, colonies were imaged and counted.

MDA-MB-468 cells [4] = test: NMN rescue of cytotoxicity; assay type: cell-based; settings: 200 μM NMN
Excerpt: NMN is the direct product of the NAMPT-catalyzed reaction. Excessive NMN can counteract the inhibitory effect of NAMPT inhibition. […] The reversal of DDY02’s efficacy by NMN underscores the compound’s mechanism of action and confirms the critical role of NAMPT inhibition in mediating its therapeutic effects. This observation also emphasizes the potential of NMN as a modulator in therapeutic scenarios involving NAMPT-targeted treatments.

MDA-MB-468 cells [5] = test: Cellular NAD level determination (NAD+/NADH WST-8 kit); assay type: cell-based
Protocol: According to the manufacturer’s instructions, an NAD^+/NADH Assay kit with WST-8 (Beyotime, China) was used to measure the intracellular NAD level. The cells collected by centrifugation were added to NAD^+/NADH lysis buffer to obtain a cell lysate. After adding […] working solution, the lysate was incubated at 37 °C for 10 min, and then followed by the addition of color-developing solution. The total concentration of NADH and NAD can be measured by detecting the absorbance at 450 nm. To measure the concentration of NADH, the cell lysate was incubated at 60 °C for 30 min before adding […] working solution. Finally, the NAD content is obtained by the subtraction [NAD^+] = [NADH + NAD^+] − [NADH].

MDA-MB-468 cells [6] = test: Western blot of γ-H2AX; assay type: cell-based; settings: 24 h
Protocol: (§3) Cells were then lysed using RIPA buffer supplemented with protease and phosphatase inhibitors. Protein concentrations were determined using the BCA Protein Assay Kit (Thermo Fisher Scientific^TM, Waltham, MA, USA). Equal amounts of protein (20–30 µg) were separated by SDS-polyacrylamide gel electrophoresis and transferred to a polyvinylidene fluoride (PVDF) membrane. The membrane was blocked with 5% milk in PBS before incubation with primary antibodies. Primary antibodies against γ-H2AX (Cell Signaling Technology™, Danvers, MA, USA), BCL2 (Abcam™, Cambridge, UK), and β-actin (Proteintech™, Rosemont, IL, USA) were used. After overnight incubation at 4 °C, membranes were washed and incubated with HRP-conjugated secondary antibodies for 1 h. Protein bands were visualized using ECL reagents (Labgic Technology^TM, Beijing, China).

MDA-MB-468 cells [7] = test: Comet assay (DNA damage); assay type: cell-based; settings: 24 h, several concentrations
Protocol: The comet assay was conducted under alkaline conditions using the Comet Assay Kit (Beyotime, Shanghai, China) following the manufacturer’s guidelines. […] This mixture was spread onto microscope slides and immersed in lysis solution for 1 h. Electrophoresis was carried out in a horizontal apparatus at 25 V and 300 mA. After electrophoresis, slides were stained with propidium iodide (PI) for DNA visualization, and images were captured using a fluorescence inverted microscope.

MDA-MB-468 cells [8] = test: Western blot of BCL2; assay type: cell-based; settings: 24 h, several concentrations
Protocol: as §3

MDA-MB-468 cells [9] = test: Wound scratch cell migration assay; assay type: cell-based; settings: up to 48 h
Protocol: MDA-MB-468 cells were plated in 6-well plates at a density of 5 × 10^5 cells/well and allowed to incubate overnight. A scratch was carefully generated in the cell monolayer using a 10 µL pipette tip. […] Images were acquired at 0, 12, 24, and 48 h time points to monitor and analyze the migration of cells over the specified intervals.

MDA-MB-468 cells [10] = test: Cell cycle analysis (PI staining, flow cytometry); assay type: cell-based; settings: 48 h, several concentrations
Protocol: Cell cycle distribution was determined using a DNA Content Quantitation Assay Kit (Solarbio, China). MDA-MB-468 cells were seeded in six-well plates and treated with various […]
treatment, cells were harvested, ﬁxed in 70% ethanol at 4°C overnight, and washed with PBS.
Cells were then incubated with RNase (100 µL) at 37°C for 30 minutes followed by propidium iodide (PI) staining (400 µL, 30 minutes, 4°C in the dark). Cell cycle distribution was analyzed using an Accuri C6 Plus ﬂow cytometer (BD Biosciences, CA) and data were processed using […]
Figure S5. DDY02 induced cell cycle of MDA-MB-468 cells arrest in the G1 phase.
(1 picture or pasted object on this page, not shown here)

Chain of PARP1 (P09874 whole entry): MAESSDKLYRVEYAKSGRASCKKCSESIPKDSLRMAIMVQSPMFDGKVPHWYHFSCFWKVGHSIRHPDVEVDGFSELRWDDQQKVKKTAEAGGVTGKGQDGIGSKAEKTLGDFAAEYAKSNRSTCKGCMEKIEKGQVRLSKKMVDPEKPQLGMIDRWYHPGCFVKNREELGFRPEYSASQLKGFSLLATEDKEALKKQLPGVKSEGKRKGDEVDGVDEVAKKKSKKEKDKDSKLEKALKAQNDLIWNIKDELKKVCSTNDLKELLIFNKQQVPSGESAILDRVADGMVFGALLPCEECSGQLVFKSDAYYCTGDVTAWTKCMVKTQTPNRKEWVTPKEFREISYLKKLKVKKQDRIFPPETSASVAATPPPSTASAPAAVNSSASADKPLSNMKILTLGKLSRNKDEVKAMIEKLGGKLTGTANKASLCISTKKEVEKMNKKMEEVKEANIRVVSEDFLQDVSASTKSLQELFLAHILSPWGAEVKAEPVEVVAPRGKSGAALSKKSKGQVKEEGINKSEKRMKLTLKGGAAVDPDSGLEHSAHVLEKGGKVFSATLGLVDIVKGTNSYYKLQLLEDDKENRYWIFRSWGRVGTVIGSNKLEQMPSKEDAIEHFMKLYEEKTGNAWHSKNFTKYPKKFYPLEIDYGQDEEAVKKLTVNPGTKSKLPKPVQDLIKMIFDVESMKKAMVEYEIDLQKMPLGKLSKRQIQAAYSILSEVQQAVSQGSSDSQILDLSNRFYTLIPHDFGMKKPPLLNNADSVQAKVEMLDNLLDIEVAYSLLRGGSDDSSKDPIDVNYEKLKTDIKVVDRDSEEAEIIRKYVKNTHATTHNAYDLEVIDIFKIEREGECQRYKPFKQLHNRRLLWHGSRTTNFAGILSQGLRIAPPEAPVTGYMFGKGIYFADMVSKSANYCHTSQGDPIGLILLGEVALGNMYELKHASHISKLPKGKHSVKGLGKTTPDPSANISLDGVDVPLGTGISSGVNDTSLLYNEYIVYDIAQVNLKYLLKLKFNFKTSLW
Chain of NAMPT (P43490 whole entry): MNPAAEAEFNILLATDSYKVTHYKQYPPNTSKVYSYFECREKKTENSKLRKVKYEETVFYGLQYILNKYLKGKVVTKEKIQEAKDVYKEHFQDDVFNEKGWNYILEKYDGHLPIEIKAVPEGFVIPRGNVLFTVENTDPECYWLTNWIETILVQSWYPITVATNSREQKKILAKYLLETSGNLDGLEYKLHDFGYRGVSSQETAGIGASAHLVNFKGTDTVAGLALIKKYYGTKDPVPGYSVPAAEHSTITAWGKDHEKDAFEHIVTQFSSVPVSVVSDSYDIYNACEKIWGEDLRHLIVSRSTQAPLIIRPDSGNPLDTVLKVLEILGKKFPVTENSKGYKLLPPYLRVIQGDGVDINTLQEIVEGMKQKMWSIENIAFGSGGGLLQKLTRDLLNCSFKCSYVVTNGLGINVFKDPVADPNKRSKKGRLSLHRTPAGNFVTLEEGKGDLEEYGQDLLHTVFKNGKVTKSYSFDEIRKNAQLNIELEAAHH

For O=C(NCc1cccnc1)Nc1ccc(S(=O)(=O)N2CCN(C(=O)c3cc(Cc4n[nH]c(=O)c5ccccc45)ccc3F)CC2)cc1 [DDY02, 1-(4-((4-(2-Fluoro-5-((4-oxo-3,4-dihydrophthalazin-1-yl)methyl)benzoyl)piperazin-1-yl)sulfonyl)phenyl)-3-(pyridin-3-ylmethyl)urea], the IC50 (NAMPT) was 0.01 ± 0.003 µM, the IC50 (PARP1; mean ± SD of at least two independent experiments in duplicate) was 0.05 ± 0.01 µM and the “fold decrease in inhibitory capacity against PARP1 compared to DDY01” value (PARP1; ratio of IC50 values) was 5.5 fold. It also gave an IC50 (MDA-MB-231) of 10.4 ± 0.16 µM, an IC50 (MDA-MB-468) of 4.43 ± 0.04 µM and an IC50 (MCF-7) of 7.61 ± 0.14 µM. For the same molecule, the IC50 at 72 h [1] was 5.31 ± 0.12 µM, the viability at 3 µM (MCF-10A; Homo sapiens, 72 h, 3.0 μM, MCF-10A, mean ± SEM, read-out: Cell Survival Rate) was 70.3 ± 1.06% and the “selectivity of cytotoxic activity between breast cancer cells and normal cells (MCF-10A)” value (MCF-10A; comparison of Tables 2 and 3) was “no selectivity”. The “percentage of apoptotic cells (Q2 + Q3)” value (MDA-MB-468 cells [2]; 0.3 µM) was 13.34%, the “levels of apoptosis (comparison)” value (MDA-MB-468 cells [2]; 1 μM) was “higher levels of apoptosis compared to Olaparib and FK866 alone” and the “percentage of apoptotic cells (Q2 + Q3)” value (MDA-MB-468 cells [2]; 1 μM) was 21.20%. For the same molecule, the “percentage of apoptotic cells (Q2 + Q3)” value (MDA-MB-468 cells [2]; 3 µM) was 48.3%, the colony formation (MDA-MB-468 cells [3]; 1 μM) was “more potent ability to inhibit colony formation compared to Olaparib, albeit slightly less effective than FK866” and the colony formation (MDA-MB-468 cells [3]; several concentrations) was “dose-dependent suppression of colony formation”. For the same molecule, the “cytotoxic effects after preincubation with NMN” value (MDA-MB-468 cells [4]) was “reversed the cytotoxic effects”, the “cellular NAD levels” value (MDA-MB-468 cells [5]; 24 h, 1 μM) was “marginally less potent than FK866” and the “cellular NAD levels” value (MDA-MB-468 cells [5]; 24 h post-treatment, several concentrations) was “reduced cellular NAD levels in a dose-dependent manner”. For the same molecule, the “accumulation of γ-H2AX” value (MDA-MB-468 cells [6]; 1 μM) was “most substantial effect”, the “accumulation of γ-H2AX” value (MDA-MB-468 cells [6]; several concentrations) was “dose-dependent accumulation of γ-H2AX” and the “DNA damage (comet assay)” value (MDA-MB-468 cells [7]) was “increased DNA damage in a concentration-dependent manner”. For the same molecule, the BCL2 expression (MDA-MB-468 cells [8]) was “inhibited BCL2 expression in a dose-dependent manner”, the “inhibitory effect on cell migration” value (MDA-MB-468 cells [9]; 1 μM) was “slightly less pronounced inhibitory effect” and the “inhibitory effect on cell migration” value (MDA-MB-468 cells [9]; 3 μM) was “further augmented”. For the same molecule, the cell cycle distribution (MDA-MB-468 cells [10]) was “dose-dependent G1-phase cell cycle arrest” and the melting point was 197 to 198 °C.
